Laboratory results published in patent US20260356851A1, “TRICYCLIC COMPOUNDS AND USES THEREOF” (HUTCHMED LIMITED, priority 2023, published 2026).

How the values were obtained:
Type in all cases: cell-based
[1] = target: T1, pERK1/2 (Thr202/Tyr204), NCI-1H358 (KRAS G12C) (Homo sapiens, UniProt P01116, G12C); experiment: Assay of intracellular pERK1/2 (Thr202/Tyr204) phosphorylation in NCI-H358 cells (KRAS G12C); conditions: pERK1/2, 2 days, read-out: NCI-H358 (KRAS G12C) IC50
T1 construct: pERK1/2 HTRF read-out
T1 sequence (P01116 1-188 isoform P01116-2 G12C): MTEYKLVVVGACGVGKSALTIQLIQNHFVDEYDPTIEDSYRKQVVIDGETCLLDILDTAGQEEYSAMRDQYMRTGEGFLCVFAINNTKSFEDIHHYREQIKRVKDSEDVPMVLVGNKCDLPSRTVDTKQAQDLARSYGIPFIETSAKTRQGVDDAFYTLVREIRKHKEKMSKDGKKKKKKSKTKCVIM
Summary of the method: (§1)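 Cells (10000-12000/well) exposed to 3-fold compound dilutions for 2 days at 37 °C, then lysed; pERK1/2 (Thr202/Tyr204) measured by HTRF with d2 and cryptate antibodies, 665/615 nm ratio.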

[2] = target: T2, pERK1/2 (Thr202/Tyr204), PANC-1 (KRAS G121D) (Homo sapiens, UniProt P01116, G12D); experiment: Assay of intracellular pERK1/2 (Thr202/Tyr204) phosphorylation in PANC-1 cells (KRAS G12D); conditions: pERK1/2, 2 days, read-out: PANC-1 (KRAS G12D) IC50
T2 construct: pERK1/2 HTRF read-out
T2 sequence (P01116 1-188 isoform P01116-2 G12D): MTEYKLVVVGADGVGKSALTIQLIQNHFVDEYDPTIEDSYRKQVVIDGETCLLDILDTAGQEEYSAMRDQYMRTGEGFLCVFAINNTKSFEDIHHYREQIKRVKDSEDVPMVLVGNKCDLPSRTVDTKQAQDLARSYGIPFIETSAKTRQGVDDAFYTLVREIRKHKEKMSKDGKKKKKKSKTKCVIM
Summary of the method: as §1

[3] = target: T3, pERK1/2 (Thr202/Tyr204), NCI-1H441 (KRAS G12V) (Homo sapiens, UniProt P01116, G12V); experiment: Assay of intracellular pERK1/2 (Thr202/Tyr204) phosphorylation in NCI-H441 cells (KRAS G12V); conditions: pERK1/2, 2 days, read-out: NCI-H441 (KRAS G12V) IC50
T3 construct: pERK1/2 HTRF read-out
T3 sequence (P01116 1-188 isoform P01116-2 G12V): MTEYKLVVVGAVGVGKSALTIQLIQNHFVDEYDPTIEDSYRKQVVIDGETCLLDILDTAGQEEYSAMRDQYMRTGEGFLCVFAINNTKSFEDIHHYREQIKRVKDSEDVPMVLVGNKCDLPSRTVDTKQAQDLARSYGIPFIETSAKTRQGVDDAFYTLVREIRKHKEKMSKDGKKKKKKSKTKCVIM
Summary of the method: as §1

IC50 [1] [nM] | IC50 [2] [nM] | IC50 [3] [nM] | SMILES
1 | 3 | 3 | Cc1cc(N)nc(-c2nc3c4c(nc(OC[C@@]56CCCN5C[C@H](F)C6)nc4c2F)N(C(C)c2cccnc2N)[C@@H](C)CO3)c1C(F)(F)F (stereo partly drawn) [Compound 326, (*)6-((9S)-10-(1-(2-aminopyridin-3-yl)ethyl)-4-fluoro-2-(((2R,7aS)-2-fluorotetrahydro-1H-pyrrolizin-7a(5H)-yl)methoxy)-9-methyl-9,10-dihydro-8H-7-oxa-1,3,6,10-tetraazacyclohepta[de]naphthalen-5-yl)-4-methyl-5-(trifluoromethyl)pyridin-2-amine]
> 100 | > 100 | > 100 | CC(c1cccnc1N)N1c2nc(OC[C@@]34CCCN3C[C@H](F)C4)nc3c(F)c(-c4ccc(F)c5sc(N)c(C(N)=O)c45)nc(c23)OC[C@@H]1C (stereo partly drawn) [Compound 327]
0.5 | 0.8 | 0.8 | CC(c1cccnc1N)N1c2nc(OC[C@@]34CCCN3C[C@H](F)C4)nc3c(F)c(-c4ccc(F)c5sc(N)c(C#N)c45)nc(c23)OC[C@@H]1C (stereo partly drawn) [Compound 328]
> 100 | > 100 | > 100 | Cc1cc(N)nc(-c2nc3c4c(nc(OC[C@@]56CCCN5C[C@H](F)C6)nc4c2F)N(C(C)c2cccnc2N)[C@@H](C)CO3)c1 (stereo partly drawn) [Compound 329]
38 | > 100 | > 100 | CC(c1cccnc1N)N1c2nc(OC[C@@]34CCCN3C[C@H](F)C4)nc3c(F)c(N4CC(O)Cc5ccccc54)nc(c23)OC[C@@H]1C (stereo partly drawn) [Compound 331]
0.4 | 0.3 | 0.9 | CC(c1cccnc1N)N1c2nc(OC[C@@]34CCCN3C[C@H](F)C4)nc3c(F)c(-c4c(C5CC5)c(Cl)cc5[nH]ncc45)nc(c23)OC[C@@H]1C (stereo partly drawn) [Compound 332]
1 | 6 | 1 | CC(c1cccnc1N)N1c2nc(OC[C@@]34CCCN3C[C@H](F)C4)nc3c(F)c(-c4c(F)cc(F)c5sc(N)nc45)nc(c23)OC[C@@H]1C (stereo partly drawn) [Compound 333]
0.3 | 0.6 | 0.5 | Cc1cc2[nH]ncc2c(-c2nc3c4c(nc(OC[C@@]56CCCN5C[C@H](F)C6)nc4c2F)N(C(C)c2cc(Cl)cnc2N)[C@@H](C)CO3)c1C(F)(F)F (stereo partly drawn) [Compound 334, (*)5-Chloro-3-(1-((9S)-4-fluoro-2-(((2R,7aS)-2-fluorotetrahydro-1H-pyrrolizin-7a(5H)-yl)methoxy)-9-methyl-5-(6-methyl-5-(trifluoromethyl)-1H-indazol-4-yl)-8,9-dihydro-1OH-7-oxa-1,3,6,10-tetraazacyclohepta[de]naphthalen-10-yl)ethyl)pyridin-2-amine]
> 100 | > 100 | > 100 | CC(c1cccnc1N)N1c2nc(OC[C@@]34CCCN3C[C@H](F)C4)nc3c(F)c(-c4cccc5nc(N)nn45)nc(c23)OC[C@@H]1C (stereo partly drawn) [Compound 335]
> 100 | > 100 | > 100 | CC(c1cccnc1N)N1c2nc(OC[C@@]34CCCN3C[C@H](F)C4)nc3c(F)c(-n4nc(N)c5ccccc54)nc(c23)OC[C@@H]1C (stereo partly drawn) [Compound 336, (*)1-((9S)-10-(1-(2-aminopyridin-3-yl)ethyl)-4-fluoro-2-(((2R,7aS)-2-fluorotetrahydro-1H-pyrrolizin-7a(5H)-yl)methoxy)-9-methyl-9,10-dihydro-8H-7-oxa-1,3,6,10-tetraazacyclohepta[de]naphthalen-5-yl)-1H-indazol-3-amine]
> 100 | > 100 | > 100 | CC(c1cccnc1N)N1c2nc(OC[C@@]34CCCN3C[C@H](F)C4)nc3c(F)c(-c4c(C(F)(F)F)ccc5ncccc45)nc(c23)OC[C@@H]1C (stereo partly drawn) [Compound 337]
2 | 39 | 4 | Cc1cc(F)c2sc(N)nc2c1-c1nc2c3c(nc(OC[C@@]45CCCN4C[C@H](F)C5)nc3c1F)N(C(C)c1cccnc1N)[C@@H](C)CO2 (stereo partly drawn) [Compound 340]
0.2 | 0.3 | 0.4 | Cc1cc2[nH]ncc2c(-c2nc3c4c(nc(OC[C@@]56CCCN5C[C@H](F)C6)nc4c2F)N([C@H](C)c2cc(F)cnc2N)[C@@H](C)CO3)c1C(F)(F)F [Compound 342]
0.2 | 2 | 0.6 | CC(c1cccnc1N)N1c2nc(OC[C@@]34CCCN3C[C@H](F)C4)nc3c(F)c(-c4c5c(cc6[nH]ncc46)CCC5)nc(c23)OC[C@@H]1C (stereo partly drawn) [Compound 343]
0.2 | 0.5 | 0.5 | CC(c1cccnc1N)N1c2nc(OC[C@@]34CCCN3C[C@H](F)C4)nc3c(F)c(-c4c5ccccc5cc5[nH]ncc45)nc(c23)OC[C@@H]1C (stereo partly drawn) [Compound 348]
> 100 | > 100 | > 100 | CC(c1cccnc1N)N1c2nc(OC[C@@]34CCCN3C[C@H](F)C4)nc3c(F)c(-c4cc(=O)[nH]c5ccccc45)nc(c23)OC[C@@H]1C (stereo partly drawn) [Compound 360]
0.2 | 0.4 | 0.3 | CC(c1cccnc1N)N1c2nc(OC[C@@]34CCCN3C[C@H](F)C4)nc3c(F)c(-c4c5cn[nH]c5cc5cccc(F)c45)nc(c23)OC[C@@H]1C (stereo partly drawn) [Compound 362]

IC50 [1] [nM] | IC50 [2] [nM] | IC50 [3] [nM] | SMILES
0.2 | 0.3 | 0.3 | Cc1c(C(F)(F)F)c(-c2nc3c4c(nc(OC[C@@]56CCCN5C[C@H](F)C6)nc4c2F)N(C(C)c2cccnc2N)[C@@H](C)CO3)c2cn[nH]c2c1F (stereo partly drawn) [Compound 363]
> 100 | > 100 | > 100 | Cc1cc2[nH]ncc2c(-c2nc3c4c(nc(OC[C@@]56CCCN5C[C@H](F)C6)nc4c2F)N([C@@H](C)c2cc(F)cnc2N)[C@@H](C)CO3)c1C(F)(F)F [Compound 364]
0.2 | 1 | 1 | Cc1c(F)c(N)cc(-c2nc3c4c(nc(OC[C@@]56CCCN5C[C@H](F)C6)nc4c2F)N([C@H](C)c2cc(F)cnc2N)[C@@H](C)CO3)c1C(F)(F)F [Compound 365]
> 100 | > 100 | > 100 | Cc1c(F)c(N)cc(-c2nc3c4c(nc(OC[C@@]56CCCN5C[C@H](F)C6)nc4c2F)N([C@@H](C)c2cc(F)cnc2N)[C@@H](C)CO3)c1C(F)(F)F [Compound 366]
0.2 | 1 | 0.4 | CC(c1cc(F)cnc1N)N1c2nc(OC[C@@]34CCCN3C[C@H](F)C4)nc3c(F)c(-c4c5cn[nH]c5cc5cccc(F)c45)nc(c23)OC[C@@H]1C (stereo partly drawn) [Compound 367]
0.3 | 0.6 | 0.3 | Cc1c(C(F)(F)F)c(-c2nc3c4c(nc(OC[C@@]56CCCN5C[C@H](F)C6)nc4c2F)N(C(C)c2cc(F)cnc2N)[C@@H](C)CO3)c2cn[nH]c2c1F (stereo partly drawn) [Compound 368]
0.2 | 0.4 | 0.2 | CC(c1cccnc1N)N1c2nc(OC[C@@]34CCCN3C[C@H](F)C4)nc3c(F)c(-c4c5cn[nH]c5cc5ccc(F)c(F)c45)nc(c23)OC[C@@H]1C (stereo partly drawn) [Compound 369]
1 | 2 | 3 | CC(c1cccnc1N)N1c2nc(OC[C@@]34CCCN3C[C@H](F)C4)nc3c(F)c(-c4c5c(cc6[nH]ncc46)CCC5(F)F)nc(c23)OC[C@@H]1C (stereo partly drawn) [Compound 370]
3 | 57 | 11 | CC(c1cccnc1N)N1c2nc(OC[C@@]34CCCN3C[C@H](F)C4)nc3c(F)c(-c4cc(F)cc5c4C(F)(F)CC5)nc(c23)OC[C@@H]1C (stereo partly drawn) [Compound 371]
0.3 | 4 | 0.8 | Cc1cc2[nH]ncc2c(-c2nc3c4c(nc(OC[C@@]56CCCN5C[C@H](F)C6)nc4c2F)N(C(C)c2cccnc2N)CCO3)c1C(F)(F)F (stereo partly drawn) [Compound 372]
0.6 | 1 | 2 | CC(c1cccnc1N)N1c2nc(OC[C@@]34CCCN3C[C@H](F)C4)nc3c(F)c(-c4c5c(cc6[nH]ncc46)CC=C5F)nc(c23)OC[C@@H]1C (stereo partly drawn) [Compound 374]
8 | > 100 | 94 | CC(c1cccnc1N)N1c2nc(OC[C@@]34CCCN3C[C@H](F)C4)nc3c(F)c(-c4c5cccnc5cc5[nH]ncc45)nc(c23)OC[C@@H]1C (stereo partly drawn) [Compound 375]
0.4 | 4 | 1 | CC(c1cccnc1N)N1c2nc(OC[C@@]34CCCN3C[C@H](F)C4)nc3c(F)c(-c4c5c(cc6[nH]ncc46)CCC(F)(F)C5)nc(c23)OC[C@@H]1C (stereo partly drawn) [Compound 376]
2 | 2 | 5 | Cc1cc2[nH]nc(C)c2c(-c2nc3c4c(nc(OC[C@@]56CCCN5C[C@H](F)C6)nc4c2F)N(C(C)c2cccnc2N)[C@@H](C)CO3)c1C(F)(F)F (stereo partly drawn) [Compound 377]
0.2 | 0.2 | 0.6 | Cc1cc2[nH]nc(C)c2c(-c2nc3c4c(nc(OC[C@@]56CCCN5C[C@H](F)C6)nc4c2F)N(C(C)c2cccnc2N)[C@@H](C)CO3)c1C(F)(F)F (stereo partly drawn) [Compound 378]
0.2 | 0.1 | 0.3 | Cc1c(C(F)(F)F)c(-c2nc3c4c(nc(OC[C@@]56CCCN5C[C@H](F)C6)nc4c2F)N(C(C)c2cccnc2N)[C@@H](C)CO3)c2c(C)n[nH]c2c1F (stereo partly drawn) [Compound 379]
1 | 1 | 2 | Cc1c(C(F)(F)F)c(-c2nc3c4c(nc(OC[C@@]56CCCN5C[C@H](F)C6)nc4c2F)N(C(C)c2cccnc2N)[C@@H](C)CO3)c2c(C)n[nH]c2c1F (stereo partly drawn) [Compound 380]
